Assay results as given in patent US20250312360A1, “MITOCHONDRIAL ANTIOXIDANT TREATMENT FOR CASK-LINKED NEURODEVELOPMENTAL DISORDERS” (Virginia Tech Intellectual Properties, Inc., priority 2022, published 2025).
“Also recorded” adds a separate entry of the source.

What was measured:
[1] = test system: CASK^floxed; Calb2-cre mice; assay: Cerebellar atrophy/degeneration after CASK deletion in cerebellum, images of cerebellum with SkQ1 treatment; assay type: in vivo
From the text: (§1) FIG. 5A-5B.-Blocking mitochondrial ROS protects cerebellum from degenerating in absence of CASK. […] Cerebellum undergoes atrophy after P30. […] (FIG. 5B) Cerebellum undergoes atrophy in CASK^floxed; Calb2-cre mice leading to locomotor incoordination. The data represents latency time to fall in an accelerating rotarod experiment on P70. CASK^floxed. […] Data represents mean and SEM from n=3. * indicates p≤ 0.05.
With no evidence for a defect in neuronal development and biochemical evidence for mitochondrial ROS mediated neuronal death, Applicant next decided to determine if CASK loss results in the degeneration of formed neurons. In the human brain without CASK, Applicant observed astrogliosis as well as microgliosis, both hallmarks of neuronal damage and neuronal loss (Patel, Hegert et al., 2022). In the setting of a human brain without CASK, the presumptive neuronal loss occurs during the early development of the cerebellum, making it hard to further interpret the results. […]

[2] = test system: CASK^floxed; Calb2-cre mice; assay: Accelerating rotarod experiment (locomotor coordination/balance); assay type: in vivo; conditions: P70, n=3, p≤0.05, untreated mice cannot balance on rotarod, FIG. 5B
From the text: as §1

CC1=C(C)C(=O)C(CCCCCCCCCC[P+](c2ccccc2)(c2ccccc2)c2ccccc2)=CC1=O [SkQ1, 10-(6′-Plastoquinonyl)decyltriphenylphosphonium]
cerebellar atrophy (images of cerebellum) ([1]; CASK^floxed, untreated cerebellum atrophies after P30 (P30 vs P100 images), FIG. 5A right panel SkQ1-treated): rescue of cerebellar atrophy | cerebellar degeneration / neurodegeneration caused by CASK deletion ([1]; CASKfloxed, summary statement on FIG. 5A-5B): can halt CASK-linked cerebellar degeneration; also recorded: effectively inhibits neurodegeneration resulting from CASK-loss | latency time to fall in accelerating rotarod experiment (balance) [2]: balance is completely rescued
